Patent US7232837B2, “Stereoisomers with high affinity for adrenergic receptors” (McNeil-PPC, Inc., priority 1999, dated 2007)

Tests used:
[1] = tested on: New Zealand white rabbits; assay: Pupil diameter / mydriasis after topical application to the rabbit eye; assay type: in vivo; settings: for Pupil Diameter: mean ± S.E.
Experimental: These diastereomers were administered topically as either 1% or 2% solutions in buffered saline. Pupillary diameter and IOP were measured in all animals over a six hour time period during the day to minimize diurnal variations in IOP and pupil diameter.
The experiments were performed on adult male New Zealand white rabbits weighing 3.0–6.0 kg. All rabbits were caged individually and maintained on a 12 hr/12 hr light/dark schedule with free access to food and water. All animal procedures were in conformity with the ARVO Resolution on the Use and Care of Animals in Research. All treated rabbits had served as controls by having received a saline treatment on a different day.
Only one eye received drug treatment. The contralateral eye served as a control. Saline (or PBS) and drug treated rabbits were treated and observed simultaneously. A single dose was given at time zero and IOP and pupil diameter measured at −1.0, −0.5, 0.5, 1, 3 and 5 hrs post-treatment.
Pupil diameter was measured visually at the point of the greatest horizontal diameter with a transparent millimeter ruler. All measurements were made under the identical ambient lighting conditions.
Mean and Standard Error values were used to construct time-response and dose-response curves for the treated and contralateral eye of research rabbits. The data were analyzed statistically by an analysis of variance and a Bonferoni's test for significance. P<0.05 was the accepted level of significance.

[2] = tested on: New Zealand white rabbits; assay: Intraocular pressure (IOP) after topical application to the rabbit eye; assay type: in vivo; settings: for IOP: mean ± S.E.
Swiss-Webster mice [3] = assay: H1 receptor antagonist (triprolidine) interaction study, locomotor activity in mice; settings: mice pretreated with triprolidine 20 min before the test compound
Swiss-Webster mice [4] = assay: Locomotor stimulant and depressant effects in mice; settings: i.p.
[5] = 1% topical, drug treated eye (T), 0.5 hr
[6] = 1% topical, drug treated eye (T), 1 hr
[7] = 1% topical, drug treated eye (T), 3 hr
[8] = 1% topical, drug treated eye (T), 5 hr
[9] = 1% topical, drug treated eye (T), −1 hr (pre-treatment)
[10] = 1% topical, untreated contralateral eye (U), 0.5 hr
[11] = 1% topical, untreated contralateral eye (U), 1 hr
[12] = 1% topical, untreated contralateral eye (U), 3 hr
[13] = 1% topical, untreated contralateral eye (U), 5 hr
[14] = 1% topical, untreated contralateral eye (U), −1 hr (pre-treatment)
[15] = 2% topical, drug treated eye (T), 0.5 hr
[16] = 2% topical, drug treated eye (T), 1 hr
[17] = 2% topical, drug treated eye (T), 3 hr
[18] = 2% topical, drug treated eye (T), 5 hr
[19] = 2% topical, drug treated eye (T), −0.5 hr (pre-treatment)
[20] = 2% topical, drug treated eye (T), −1 hr (pre-treatment)
[21] = 2% topical, untreated contralateral eye (U), 0.5 hr
[22] = 2% topical, untreated contralateral eye (U), 1 hr
[23] = 2% topical, untreated contralateral eye (U), 3 hr
[24] = 2% topical, untreated contralateral eye (U), 5 hr
[25] = 2% topical, untreated contralateral eye (U), −0.5 hr (pre-treatment)
[26] = 2% topical, untreated contralateral eye (U), −1 hr (pre-treatment)

(+)-norpseudoephedrine
mydriasis / pupil diameter (result in words) ([1]; 1% or 2% topical, rabbit): significant mydriasis
Mydriatic Responses, TREATED EYE ([1]; 1% topical): ++ (++ = 2–4 mm change)
Mydriatic Responses, UNTREATED EYE ([1]; 1% topical): + (+ = 0–2 mm change)
Pupil Diameter [1, 5]: 8 ± 0.2 mm
Pupil Diameter [1, 6]: 8 ± 0.2 mm
Pupil Diameter [1, 7]: 8 ± 0.2 mm
Pupil Diameter [1, 8]: 8 ± 0.2 mm
Pupil Diameter ([1]; 1% topical, drug treated eye (T), −0.5 hr (pre-treatment)): 6 ± 0.2 mm
Pupil Diameter [1, 9]: 6 ± 0.2 mm
Pupil Diameter [1, 10]: 8 ± 0.2 mm
Pupil Diameter [1, 11]: 8 ± 0.2 mm
Pupil Diameter [1, 12]: 8 ± 0.2 mm
Pupil Diameter [1, 13]: 8 ± 0.2 mm
Pupil Diameter ([1]; 1% topical, untreated contralateral eye (U), −0.5 hr (pre-treatment)): 6 ± 0.2 mm
Pupil Diameter [1, 14]: 6 ± 0.2 mm
Mydriatic Responses, TREATED EYE ([1]; 2% topical): ++ (++ = 2–4 mm change)
Mydriatic Responses, UNTREATED EYE ([1]; 2% topical): ++ (++ = 2–4 mm change)
Pupil Diameter [1, 15]: 9 ± 0.2 mm
Pupil Diameter [1, 16]: 9 ± 0.2 mm
Pupil Diameter [1, 17]: 9 ± 0.2 mm
Pupil Diameter [1, 18]: 9 ± 0.2 mm
Pupil Diameter [1, 19]: 6 ± 0.2 mm
Pupil Diameter [1, 20]: 6 ± 0.2 mm
Pupil Diameter [1, 21]: 9 ± 0.2 mm
Pupil Diameter [1, 22]: 9 ± 0.2 mm
Pupil Diameter [1, 23]: 9 ± 0.2 mm
Pupil Diameter [1, 24]: 9 ± 0.2 mm
Pupil Diameter [1, 25]: 6 ± 0.2 mm
Pupil Diameter [1, 26]: 6 ± 0.2 mm
effect on IOP (result in words) ([2]; 1% or 2% topical, rabbit): accompanying increase in IOP
IOP [2, 5]: 19 ± 2.4 mmHg
IOP [2, 6]: 18 ± 1.8 mmHg
IOP [2, 7]: 18 ± 2.0 mmHg
IOP [2, 8]: 17 ± 2.8 mmHg
IOP [2, 9]: 18 ± 1.0 mmHg
IOP [2, 10]: 24 ± 1.8 mmHg
IOP [2, 11]: 19 ± 1.8 mmHg
IOP [2, 12]: 18 ± 2.8 mmHg
IOP [2, 13]: 17 ± 2.8 mmHg
IOP [2, 14]: 20 ± 1.7 mmHg
IOP [2, 15]: 18 ± 2.5 mmHg
IOP [2, 16]: 20 ± 2.3 mmHg
IOP [2, 17]: 20 ± 2.0 mmHg
IOP [2, 18]: 21 ± 2.8 mmHg
IOP [2, 19]: 16 ± 2.5 mmHg
IOP [2, 20]: 19 ± 2.4 mmHg
IOP [2, 21]: 22 ± 2.0 mmHg
IOP [2, 22]: 23 ± 2.1 mmHg
IOP [2, 23]: 22 ± 2.7 mmHg
IOP [2, 24]: 24 ± 2.3 mmHg
IOP [2, 25]: 19 ± 2.5 mmHg
IOP [2, 26]: 18 ± 2.6 mmHg
effect of triprolidine pretreatment on stimulant or depressant effects (Swiss-Webster mice [3]): failed to show significant modification of stimulant or depressant effects
Depression Time: 30-min period following injection in which the maximal depression occurred (Swiss-Webster mice [4]): 10 to 40 min
Stimulation Time: 30-min period following injection in which the maximal stimulant effect occurred (Swiss-Webster mice [4]): 30 to 60 min
Stimulation Potency: dose resulting in ½ the maximal stimulant effect (ID50) (Swiss-Webster mice [4]; — denotes absence of significant effect): 12.2 mg/kg
